Test results published in PubChem BioAssay AID1949 (Southern Research Institute, 2009).
In brackets after ≈: the same amount, converted by molar mass. Records with an inconclusive call do not appear. Activity calls are given as the source filed them. The rule behind the calls is not given here.

test system: M. tuberculosis H37Rv growth inhibition; assay: Confirmatory growth inhibition assay against Mycobacterium tuberculosis H37Rv, potency (AID 1949);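 note: bacteria grown 7 days with compound before Alamar blue readout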

Structure (SMILES) | IC50
CC1=NN(c2nc(-c3ccc(Cl)cc3)cs2)C(=O)C1C (stereo not drawn) | 2.07 µg/mL (≈ 6.77 µM)
Cc1nc2c(o1)C1(C(=O)N2C)C(C#N)=C(N)N(c2ccccc2)c2ccccc21 (stereo not drawn) | 6.25 µg/mL (≈ 16.3 µM)
O=C(Nc1cccc(C(F)(F)F)c1)C1CCN(C(=O)c2ccc(-c3ccccc3)cc2)CC1 | 5.84 µg/mL (≈ 12.9 µM)
CN1CCN(c2ccc(NC(=S)NC(=O)c3cc4ccccc4o3)cc2)CC1 | 10.7 µg/mL (≈ 27.2 µM)
c1ccc(-c2nnc3sc(-c4cc5ccccc5o4)nn23)cc1 | 4.89 µg/mL (≈ 15.4 µM)
COC(=O)COc1ccc2c(-c3cccc([N+](=O)[O-])c3)cc(=O)oc2c1 | 0.34 µg/mL (≈ 0.957 µM)
O=C(Nc1ccncc1)c1ccc2nc(-c3ccccc3)c(-c3ccccc3)nc2c1 | 4.64 µg/mL (≈ 11.5 µM)
O=C(Nc1ccc(C(F)(F)F)cc1)C1COc2ccccc2O1 (stereo not drawn) | 37.9 µg/mL (≈ 117 µM)
O=C1c2cccc3c([N+](=O)[O-])ccc(c23)C(=O)N1Cc1ccccc1 | 46 µg/mL (≈ 138 µM)
O=C1C(Cl)=C(N2CCOCC2)C(=O)N1c1cccc(Cl)c1Cl | 20.9 µg/mL (≈ 57.7 µM)
O=c1c2ccccc2nc(/C=C/c2ccc([N+](=O)[O-])o2)n1CCCO | < 0.1 µg/mL
CCOC(=O)COc1ccc2c(c1)c(C(C)=O)c(C)n2Cc1ccccc1 | 24.9 µg/mL (≈ 68.2 µM)
CCCC(=O)NC(=S)Nc1cccc(C(F)(F)F)c1 | 2.69 µg/mL (≈ 9.27 µM)
CC(=O)c1c(O)n(C)c(=S)n(C)c1=O | > 50 µg/mL (inactive)
CC(C)(C)c1ccc(-c2noc(-c3cccnc3)n2)cc1 | 4.34 µg/mL (≈ 15.5 µM)
Brc1c(OCCCn2ccnc2)ccc2ccccc12 | 1.56 µg/mL (≈ 4.71 µM)
O=C(OCc1ccccc1Cl)c1cc2ccccc2oc1=O | > 50 µg/mL (inactive)
CC(C)(C)n1cnc2cc(NC(=O)c3ccc(Cl)cc3)ccc21 | 0.99 µg/mL (≈ 3.02 µM)
COc1cccc2c(C)nc(Nc3nc4ccccc4c(=O)[nH]3)nc12 | > 50 µg/mL (inactive)
O=c1c2cc(I)ccc2nc(/C=C/c2cccnc2)n1CCc1ccccc1 | 31.4 µg/mL (≈ 65.4 µM)

Structure (SMILES) | IC50
CC1CCN(CCNC(=S)Nc2ccc(F)cc2)CC1 | 1.54 µg/mL (≈ 5.21 µM)
COC(=O)CSc1nnc(SCc2ccc(OC)cc2)s1 | 2.28 µg/mL (≈ 6.66 µM)
O=C(Nc1cccnc1)c1ccc2c(c1)C1C3CCC(C3)C1C(c1ccccc1)N2 (stereo not drawn) | 37.5 µg/mL (≈ 94.8 µM)
Nc1nnc(Sc2ccc([N+](=O)[O-])c3ncccc23)s1 | 3.47 µg/mL (≈ 11.4 µM)
COc1ccc(NC(=O)c2ccc(C#CC(C)(C)O)s2)cc1 | 0.31 µg/mL (≈ 0.983 µM)
CCOC(=O)COc1ccc(S(=O)(=O)Nc2cc(C)cc(C)c2)cc1 | 4.03 µg/mL (≈ 11.1 µM)
O=S1(=O)C=CC2ON=C(c3c(Cl)cccc3Cl)C21 (stereo not drawn) | 10.8 µg/mL (≈ 35.6 µM)
COc1ccc(-c2cc(=O)oc3cc(OCC(=O)OCc4ccccc4)ccc23)cc1 | 16.4 µg/mL (≈ 39.3 µM)
CC1=CC(C)(C)N2C(=O)C(=O)c3cc(OC(=O)c4ccccc4)cc1c32 | > 50 µg/mL (inactive)
CCCCc1ccc(NC(=O)CSCc2ccc(OC)cc2)cc1 | 12.9 µg/mL (≈ 37.5 µM)
CCOC(=O)COc1ccc2c3c(c(=O)oc2c1)CCCCC3 | 2.73 µg/mL (≈ 8.63 µM)
COc1cc(OC)cc(C(=O)NC(=S)N2CCCCCC2)c1 | 2.83 µg/mL (≈ 8.78 µM)
CCOC(=O)c1c(NC(=O)COc2ccc(C(C)C)cc2)sc2c1CCC2 | 2.77 µg/mL (≈ 7.15 µM)
COc1cc(NC(=O)c2cc3ccccc3o2)ccc1NC(=O)c1ccccc1Cl | 2.31 µg/mL (≈ 5.49 µM)
Cc1ccc(C)c(N2C(=O)c3cccc4c([N+](=O)[O-])ccc(c34)C2=O)c1 | 0.76 µg/mL (≈ 2.19 µM)
Cc1ccc(CN2C(=O)C(=O)c3cc(Br)ccc32)c(C)c1 | 8.44 µg/mL (≈ 24.5 µM)
CCOC(=O)COc1ccc(OCc2ccccc2)cc1 | 1.21 µg/mL (≈ 4.23 µM)
O=C(COc1ccc(Br)cc1)Nc1ccccc1F | 29.5 µg/mL (≈ 91.1 µM)
CC(NC(=O)c1ccc(Br)cc1)c1ccc2c(c1)OCCO2 (stereo not drawn) | 5.81 µg/mL (≈ 16 µM)
COc1ccc(N2CCN(c3ncnc4sc5c(c34)CCCC5)CC2)cc1 | > 50 µg/mL (inactive)

Structure (SMILES) | IC50
COc1ccc2c(c1)c(=O)oc1cc(OC(C)C(=O)c3ccccc3)ccc12 (stereo not drawn) | 2.84 µg/mL (≈ 7.59 µM)
CC1CN(c2ccc([N+](=O)[O-])cc2)CCN1C(=O)c1cccc(Br)c1 (stereo not drawn) | 2.83 µg/mL (≈ 7 µM)
O=C1C(=O)N(Cc2cccc3ccccc23)c2ccc(Cl)cc21 | 21.4 µg/mL (≈ 66.6 µM)
O=C(NC(=S)N1CCc2ccccc21)c1ccccc1 | 1.45 µg/mL (≈ 5.14 µM)
CC(C)(C)c1ccc(C(=O)N2CCC(C(=O)N3CCN(c4cccc(Cl)c4)CC3)CC2)cc1 | > 50 µg/mL (inactive)
Cc1ccc(C(=O)Nc2ccc(N3CCN(C)CC3)cc2)cc1Cl | 46.2 µg/mL (≈ 134 µM)
CC(C)C(=O)N1CCN(c2ccc(NC(=O)c3ccc([N+](=O)[O-])o3)cc2)CC1 | 0.21 µg/mL (≈ 0.543 µM)
Cn1c2c(c(=O)n(C)c1=O)C(C(F)(F)F)(C(F)(F)F)N=C(c1cccc([N+](=O)[O-])c1)N2 | > 50 µg/mL (inactive)
O=C(NCCc1ccc(Cl)cc1)C12CC3CC(CC(C3)C1)C2 | 13.7 µg/mL (≈ 43 µM)
O=c1cc(-c2ccccc2)nc2c(-c3cccc4ccccc34)c(Cc3ccccc3)[nH]n12 | 41.9 µg/mL (≈ 98.1 µM)
O=C(Nc1ccc(Br)c(C(F)(F)F)c1)c1ccccc1 | 3.26 µg/mL (≈ 9.47 µM)
Cc1ccc(NC(=O)c2cc3cc(Cl)cc(Cl)c3oc2=O)c(C)c1 | 1.1 µg/mL (≈ 3.04 µM)
O=C(NCCCN1CCN(c2ccc(F)cc2)CC1)NC12CC3CC(CC(C3)C1)C2 | > 50 µg/mL (inactive)
CCC(=O)NC(=S)Nc1ccc(N2CCCCC2)cc1 | 3.52 µg/mL (≈ 12.1 µM)
CCc1ccc(OCC(=O)NNC(=O)c2cnccn2)c(Br)c1 | 1.12 µg/mL (≈ 2.95 µM)
CCOc1ccc(Nc2nc(-c3ccccn3)cs2)cc1 | < 0.1 µg/mL
O=C(NCCc1ccc(F)cc1)NC12CC3CC(CC(C3)C1)C2 | 0.21 µg/mL (≈ 0.664 µM)
COc1ccc(OC)c(NC(=O)c2cc3cc(Br)ccc3oc2=O)c1 | 0.2 µg/mL (≈ 0.495 µM)
